{"source": "patent US4195183A", "about": "“ω-Nor-aromatic-13,14-dehydro-prostaglandins and process for their preparation” (Farmitalia Certo Erba S.p.A., priority 1976, dated 1980)", "key": {"[1]": {"system": "mares, cows, heifers and sowes", "assay": "synchronizing the estrum / haematic progesterone levels in farm animals", "type": "in vivo", "conditions": "for haematic levels of progesterone: after administration of 0.5-3 ml of the 0.5 mg/ml solution; for ability of synchronizing the estrum: solution in aqueous isotonic buffered (pH 7.5) medium, 0.5 mg/ml, mares, cows, heifers and sowes"}, "[2]": {"system": "guinea pig ileum", "assay": "guinea pig ileum test (in vitro)", "conditions": "relative to PGF2α (conventional value 1), limits in brackets", "procedure": "(§1) In the Table the conventional value of 1 was given to the activity of PGF2α in both tests.\n*In a 10 ml thermostatic bath held at 35° C., ilea of male guinea\npigs, under 0.5 g traction, were subjected to carbondioxide in a Tyrode\nsolution; the preparation was left for 30 minutes to stabilize before the\ncompounds were tested. The response was recorded using a isotonic frontal\nlever, long enough to amplify the response 4.5 times."}, "[3]": {"system": "oestrogenized rat uteri", "assay": "rat uterus test (in vitro)", "conditions": "relative to PGF2α (conventional value 1), limits in brackets", "procedure": "as §1\n**In a 10 ml thermostatic bath held at 29° C., oestrogenized rat\nuteri under 0.5 g traction were subjected to carbondioxide in a Dejalon\nsaline solution. The prepration was left to stabilize for 30 minutes\nbefore the compounds were tested. Response was measured using a isotonic\nfrontal lever, long enough to amplify the response 4.5 times."}, "[4]": {"system": "pregnant rat", "assay": "luteolytic activity in the pregnant rat", "type": "in vivo", "conditions": "pregnant rat at the 9th-10th day of pregnancy; relative to PGF2α (conventional value 1)", "description": "The action selectivity of the compounds of the invention on the miometrium and on the reproductive apparatus is also proven by the remarkable increase of the luteolytic activity in the pregnant rat at the 9th-10th day of pregnancy. In fact, if the conventional value 1 is given to the luteolytic activity of PGF2α, the value of 100 at least is to be given to the luteolytic activity of 13,14-dehydro-17-phenyl-20,19,18-trinor-PGF2α, and the value of 200 to the luteolytic activity of 13,14-dehydro-16-p-fluorophenoxy-20,19,18,17-tetranor-PGF2α."}, "[5]": {"biological_target": "T1, 15-hydroxy-prostaglandin-dehydrogenase drawn from human placenta (Homo sapiens, UniProt P15428)", "T1 construct": "drawn from human placenta; from tissue; host or cells: human placenta", "T1 sequence (P15428 1-266)": "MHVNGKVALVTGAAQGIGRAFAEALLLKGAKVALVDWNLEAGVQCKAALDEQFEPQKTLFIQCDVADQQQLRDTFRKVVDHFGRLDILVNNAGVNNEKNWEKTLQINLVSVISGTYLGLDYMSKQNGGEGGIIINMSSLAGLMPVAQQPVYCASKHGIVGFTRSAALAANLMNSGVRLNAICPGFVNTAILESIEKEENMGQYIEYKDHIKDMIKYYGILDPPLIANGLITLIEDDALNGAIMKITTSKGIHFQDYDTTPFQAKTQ", "assay": "inhibition of 15-hydroxy-prostaglandin-dehydrogenase, in vitro", "type": "biochemical", "conditions": "enzyme from human placenta; inhibition partially competitive with respect to PGF2α", "description": "The compounds of formula (I) furthermore inhibit the use of natural prostaglandins as substrate by the same enzyme."}}, "data": [{"smiles": "O=C([O-])CCC/C=C\\CC1C(O)CC(O)C1C#CC(O)COc1ccc(F)cc1.[Na+]", "note": "(stereo not drawn) [13,14-dehydro-16-p-fluorophenoxy-20,19,18,17-tetranor-PGF2α]", "values": [{"measurement": "haematic levels of progesterone", "setting": "[1]", "result": "pronounced downfall"}, {"measurement": "ability of synchronizing the estrum", "setting": "[1]", "result": "very good results"}]}, {"smiles": "O=C(O)CCC/C=C\\CC1C(O)CC(O)C1C#CC(O)COc1cccc(C(F)(F)F)c1", "note": "(stereo not drawn) [5c-9α,11α,15S-trihydroxy-20,19,18,17-tetranor-16-m-trifluoromethylphenoxy-prost-5-en-13-ynoic acid]", "values": [{"measurement": "Guinea Pig Ileum activity, PGF2α = 1", "setting": "[2]", "result": "0.50 (0.05-5)"}, {"measurement": "Rat Uterus activity, PGF2α = 1", "setting": "[3]", "result": "3.86 (2.96-5.03)"}]}, {"smiles": "O=C([O-])CCC/C=C\\CC1C(O)CC(O)C1C#CC(O)CCc1ccccc1.[Na+]", "note": "(stereo not drawn) [13,14-dehydro-17-phenyl-20,19,18-trinor-PGF2α]", "values": [{"measurement": "haematic levels of progesterone", "setting": "[1]", "result": "pronounced downfall"}, {"measurement": "ability of synchronizing the estrum", "setting": "[1]", "result": "very good results"}]}, {"smiles": "O=C(O)CCC/C=C\\CC1C(O)CC(O)C1C#CC(O)COc1ccc(F)cc1", "note": "(stereo not drawn) [5c-9α,11α,15S-trihydroxy-20,19,18,17-tetranor-16-p-fluorophenoxy-prost-5-en-13-ynoic acid]", "values": [{"measurement": "Guinea Pig Ileum activity, PGF2α = 1", "setting": "[2]", "result": "0.50 (0.05-5)"}, {"measurement": "Rat Uterus activity, PGF2α = 1", "setting": "[3]", "result": "1.91 (1.34-2.73)"}, {"measurement": "luteolytic activity, PGF2α = 1", "setting": "[4]", "result": 200}]}, {"smiles": "O=C(O)CCC/C=C\\C[C@@H]1[C@@H](/C=C/[C@@H](O)CCc2ccccc2)[C@H](O)C[C@@H]1O", "note": "[17-phenyl-20,19,18-trinor-PGF2α, 5c,13t-9α,11α,15S-trihydroxy-20,19,18-trinor-17-phenyl-prosta-5,13-dienoic acid, reference compound]", "values": [{"measurement": "Guinea Pig Ileum activity, PGF2α = 1", "setting": "[2]", "result": 2.34}, {"measurement": "Rat Uterus activity, PGF2α = 1", "setting": "[3]", "result": 1.54}]}, {"smiles": "O=C(O)CCC/C=C\\C[C@@H]1[C@@H](C#C[C@@H](O)CCc2ccccc2)[C@H](O)C[C@@H]1O", "note": "[5c-9α,11α,15S-trihydroxy-20,19,18-trinor-17-phenyl-prost-5-en-13-ynoic acid]", "values": [{"measurement": "Ki", "setting": "[5]", "result": 130, "unit": "µM"}, {"measurement": "Guinea Pig Ileum activity, PGF2α = 1", "setting": "[2]", "result": 0.6}, {"measurement": "Rat Uterus activity, PGF2α = 1", "setting": "[3]", "result": 22.74}, {"measurement": "luteolytic activity, PGF2α = 1", "setting": "[4]", "result": "≥ 100"}]}, {"smiles": "CCCCC[C@H](O)/C=C/[C@@H]1[C@@H](C/C=C\\CCCC(=O)O)[C@@H](O)C[C@H]1O", "note": "[PGF2α, reference compound]", "values": [{"measurement": "Guinea Pig Ileum activity, PGF2α = 1", "setting": "[2]", "result": 1}, {"measurement": "Rat Uterus activity, PGF2α = 1", "setting": "[3]", "result": 1}, {"measurement": "luteolytic activity, PGF2α = 1", "setting": "[4]", "result": 1}]}, {"smiles": "CCCCC[C@H](O)C#C[C@@H]1[C@@H](C/C=C\\CCCC(=O)O)[C@@H](O)C[C@H]1O", "note": "[13,14-dehydro-PGF2α, reference compound]", "values": [{"measurement": "Guinea Pig Ileum activity, PGF2α = 1", "setting": "[2]", "result": 0.6}, {"measurement": "Rat Uterus activity, PGF2α = 1", "setting": "[3]", "result": 1.09}]}, {"smiles": "CO[C@H](C#C[C@@H]1[C@@H](C/C=C\\CCCC(=O)O)[C@@H](O)C[C@H]1O)CCc1ccccc1", "note": "[5c-9α,11α-dihydroxy-15S-methoxy-20,19,18-trinor-17-phenyl-prost-5-en-13-ynoic acid]", "values": [{"measurement": "Guinea Pig Ileum activity, PGF2α = 1", "setting": "[2]", "result": 0.05}, {"measurement": "Rat Uterus activity, PGF2α = 1", "setting": "[3]", "result": 4.4}]}]}
